From patent US4073891A, “N^2 -Arylsulfonyl-L-argininamides and the pharmaceutically acceptable salts thereof” (Mitsubishi Chemical Industries Limited, priority 1974, dated 1978)

Tests used:
mice = experiment: acute toxicity (LD50), intraperitoneal administration; format: in vivo; details: mice (male, 20 g)
Text: Representative LD50 values, for example, for N^2 -(5,6,7,8-tetrahydro-1-naphthylsulfonyl)-N-(2-methoxyethyl)glycine, N^2 -(7-methyl-2-naphthylsulfonyl)-N-butylglycine and N^2 -(6,7-dimethyl-1-naphthylsulfonyl)-N-(2-methoxyethyl)glycine are above 1,500 milligrams per kilogram, respectively.

thrombin = target: T1, thrombin (Bos taurus, UniProt P00735); experiment: fibrinogen coagulation time; format: biochemical; details: bovine fibrinogen, thrombin 5 units/ml, borate saline buffer pH 7.4, 25° C; normal coagulation time 50-55 seconds
T1 construct: purchased Mochida Pharmaceutical Co., Ltd
Description: The measurement of the fibrinogen coagulation time was conducted as follows:
Immediately after mixing, the reaction mixture was transferred from the ice bath to a bath maintained at 25° C. Coagulation times were taken as the period between the time of transference to the 25° C bath and the time of the first appearance of fibrin threads. […] The term "concentration required to prolong the coagulation time by a factor of two" is the concentration of an active ingredient required to prolong the normal coagulation time 50-55 seconds to 100-110 seconds.

| SMILES | acute toxicity LD50 (mice) | Concentration required to prolong the coagulation time by a factor of two (thrombin) |
| --- | --- | --- |
| CCCCNC(=O)[C@H](CCCNC(=N)N)NS(=O)(=O)c1cccc2c(N(C)C)cccc12 [N^2 -dansyl-N-butyl-L-argininamide, reference compound] | 75 milligrams per kilogram | – |
| CCCCN(C)C(=O)[C@H](CCCNC(=N)N)NS(=O)(=O)c1cccc2c(N(C)C)cccc12 [N^2 -dansyl-N-methyl-N-butyl-L-argininamide, reference compound] | 70 milligrams per kilogram | – |
| CCCCN(CC(=O)O)C(=O)[C@H](CCCNC(=N)N)NS(=O)(=O)c1cccc2c1CCCC2 [Sample 1, N^2-(5,6,7,8-tetrahydro-1-naphthylsulfonyl)-L-arginyl-N-butylglycine] | – | 20 µM |
| COCCN(CC(=O)O)C(=O)[C@H](CCCNC(=N)N)NS(=O)(=O)c1cccc2c1CCCC2 [Sample 3, N^2-(5,6,7,8-tetrahydro-1-naphthylsulfonyl)-L-arginyl-N-(2-methoxyethyl)glycine] | above 1,500 milligrams per kilogram | 10 µM |
| N=C(N)NCCC[C@H](NS(=O)(=O)c1ccc2c(c1)CCCC2)C(=O)N(CC(=O)O)Cc1ccccc1 [Sample 4, N^2-(5,6,7,8-tetrahydro-2-naphthylsulfonyl)-L-arginyl-N-benzylglycine] | – | 30 µM |
| CCCCN(CC(=O)O)C(=O)[C@H](CCCNC(=N)N)NS(=O)(=O)c1ccc2ccc(C)cc2c1 [Sample 14, N^2-(7-methyl-2-naphthylsulfonyl)-L-arginyl-N-butylglycine] | above 1,500 milligrams per kilogram | 0.3 µM |
| COCCN(CC(=O)O)C(=O)[C@H](CCCNC(=N)N)NS(=O)(=O)c1ccc2ccc(C)cc2c1 [Sample 15, N^2-(7-methyl-2-naphthylsulfonyl)-L-arginyl-N-(2-methoxyethyl)glycine] | – | 0.2 µM |
| Cc1ccc2ccc(S(=O)(=O)N[C@@H](CCCNC(=N)N)C(=O)N(CC(=O)O)CC3CCCCC3)cc2c1 [Sample 17, N^2-(7-methyl-2-naphthylsulfonyl)-L-arginyl-N-cyclohexylmethylglycine] | – | 14 µM |
| COCCN(CC(=O)O)C(=O)[C@H](CCCNC(=N)N)NS(=O)(=O)c1cccc2ccc(C)cc12 [Sample 22, N^2-(7-methyl-1-naphthylsulfonyl)-L-arginyl-N-(2-methoxyethyl)glycine] | – | 20 µM |
| COCCN(CC(=O)O)C(=O)[C@H](CCCNC(=N)N)NS(=O)(=O)c1cccc2cc(C)c(C)cc12 [Sample 23, N^2-(6,7-dimethyl-1-naphthylsulfonyl)-L-arginyl-N-(2-methoxyethyl)glycine] | above 1,500 milligrams per kilogram | 10 µM |
| CCCCN(CC(=O)O)C(=O)[C@H](CCCNC(=N)N)NS(=O)(=O)c1cccc2c(N(C)C)cccc12 [Sample 24, N^2-(5-dimethylamino-1-naphthylsulfonyl)-L-arginyl-N-butylglycine] | – | 4 µM |
